test system: HBV; assay: HBV replication inhibition assay (BDNA assay) in HepG2.2.15 cells; format: cell-based; settings: HBV replication assay (BDNA assay), HepG2.2.15 cells; read-out: DNA EC50
Procedure, shortened: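 Supernatant encapsidated HBV DNA was measured by bDNA after DNase digestion and proteinase K release. Stably HBV-integrated HepG2.2.15 cells had two 3-day compound exposures (0.5% DMSO). Signals were background-subtracted and normalized to DMSO wells, and EC50 was obtained by four-parameter fit.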

Row | Structure (SMILES) | EC50 [nM]
1 | C[C@@H]1Cc2nn3c(c2CN1C(=O)Nc1ccc(F)c(C(F)(F)F)c1)C(=O)N(C)OC(CN(C)C)C3 (stereo in doubt) [Compound 098_D2, (4R*,9R)-4-((dimethylamino)methyl)-N-(4-fluoro-3-(trifluoromethyl)phenyl)-2,9-dimethyl-1-oxo-1,4,5,8,9,11-hexahydropyrido[4′,3′:3,4]pyrazolo[5,1-d][1,2,5]oxadiazepine-10(2H)-carboxamide] | 1 to 100

same assay, conditions: Hepatitis B virus, HepG2.2.15, HBV replication assay (BDNA assay), HepG2.2.15 cells; read-out: DNA EC50

Row | Structure (SMILES) | EC50 [nM]
2 | CN1OC(CNC(=O)C2CC2)Cn2nc3c(c2C1=O)CN(C(=O)Nc1ccc(F)c(Cl)c1)CC3 (stereo not shown) [Compound 198, N-(3-chloro-4-fluorophenyl)-4-(cyclopropanecarboxamidomethyl)-2-methyl-1-oxo-1,4,5,8,9,11-hexahydropyrido[4′,3′:3,4]pyrazolo[5,1-d][1,2,5]oxadiazepine-10(2H)-carboxamide] | 1 to 100
3 | CC(=O)NCC1Cn2nc3c(c2C(=O)N(C)O1)CN(C(=O)Nc1ccc(F)c(Br)c1F)CC3 (single isomer, unassigned) [Compound 170_E1, (S*)-4-(acetamidomethyl)-N-(3-bromo-2,4-difluorophenyl)-2-methyl-1-oxo-1,4,5,8,9,11-hexahydropyrido[4′,3′:3,4]pyrazolo[5,1-d][1,2,5]oxadiazepine-10(2H)-carboxamide] | 1 to 100
4 | C[C@@H]1Cc2nn3c(c2CN1C(=O)Nc1ccc(F)c(Cl)c1)C(=O)N(C)O[C@H](CO)C3 (stereo in doubt) [Compound 069_E4, (4S*,9R*)—N-(3-chloro-4-fluorophenyl)-4-(hydroxymethyl)-2,9-dimethyl-1-oxo-1,4,5,8,9,11-hexahydropyrido[4′,3′:3,4]pyrazolo[5,1-d][1,2,5]oxadiazepine-10(2H)-carboxamide] | 1 to 100
5 | CN1O[C@H](CN)Cn2nc3c(c2C1=O)CN(C(=O)Nc1ccc(F)c(C#N)c1)CC3 (stereo in doubt) [Compound 114_E1, (S*)-4-(aminomethyl)-N-(3-cyano-4-fluoro-phenyl)-2-methyl-1-oxo-5,8,9,11-tetrahydro-4H-pyrido[2,3]pyrazolo[2,4-d][1,2,5]oxadiazepine-10-carboxamide] | 1 to 100
6 | CC(=O)NCC1Cn2nc3c(c2C(=O)N(C)O1)CN(C(=O)Nc1ccc(F)c(Cl)c1)CC3 (stereo not shown) [Compound 162, -(acetamidomethyl)-N-(3-chloro-4-fluoro-phenyl)-2-methyl-1-oxo-5,8,9,11-tetrahydro-4H-pyrido[2,3]pyrazolo[2,4-d][1,2,5]oxadiazepine-10-carboxamide] | 1 to 100
7 | CN1OC(CNC(=O)CC(F)(F)F)Cn2nc3c(c2C1=O)CN(C(=O)Nc1ccc(F)c(Cl)c1)CC3 (stereo not shown) [Compound 199, N-(3-chloro-4-fluorophenyl)-2-methyl-1-oxo-4-((3,3,3-trifluoropropanamido)methyl)-1,4,5,8,9,11-hexahydropyrido[4′,3′:3,4]pyrazolo[5,1-d][1,2,5]oxadiazepine-10(2H)-carboxamide] | 1 to 100
8 | Cc1cc(NC(=O)N2CCc3nn4c(c3C2)C(=O)N(C)OC(CO)C4)ccc1F (single isomer, unassigned) [Compound 035_E1, (S*)—N-(4-fluoro-3-methylphenyl)-4-(hydroxymethyl)-2-methyl-1-oxo-1,4,5,8,9,11-hexahydropyrido[4′,3′:3,4]pyrazolo[5,1-d][1,2,5]oxadiazepine-10(2H)-carboxamide] | 1 to 100
9 | C[C@@H]1Cc2nn3c(c2CN1C(=O)Nc1ccc(F)c(Cl)c1)C(=O)N(C)OCC3 [Compound 075, (9R)—N-(3-chloro-4-fluoro-phenyl)-2,9-dimethyl-1-oxo-5,8,9,11-tetrahydro-4H-pyrido[2,3]pyrazolo[2,4-c][1,2,5]oxadiazepine-10-carboxamide] | 1 to 100
10 | CN1O[C@H](C[S@@+](C)[O-])Cn2nc3c(c2C1=O)CN(C(=O)Nc1ccc(F)c(Cl)c1)CC3 (stereo in doubt) [Compound 049_E2, (S*)—N-(3-chloro-4-fluorophenyl)-2-methyl-4-(((R*)-methylsulfinyl)methyl)-1-oxo-1,4,5,8,9,11-hexahydropyrido[4′,3′:3,4]pyrazolo[5,1-d][1,2,5]oxadiazepine-10(2H)-carboxamide] | 1 to 100

— patent US10987359B2, “Oxadiazepinone derivatives and methods of treating hepatitis B infections” (priority 2016, dated 2021)
